# Test results: PubChem BioAssay (NCI)
#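 Method: 48-hour compound exposure of cells in 96-well plates, five concentrations, linear interpolation of endpoints. TGI is the concentration that stops growth completely.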
# How the values were obtained:
# Experiment in all cases: NCI anticancer screen, dose series, 48 h
# 786-0 renal = system: 786-0 renal
# A498 renal = system: A498 renal
# A549 NSCLC = system: A549 NSCLC
# CAKI-1 renal = system: CAKI-1 renal
# CCRF-CEM leukemia = system: CCRF-CEM leukemia
# COLO 205 colon = system: COLO 205 colon
# DLD-1 colon = system: DLD-1 colon
# DMS 114 small cell lung = system: DMS 114 small cell lung
# DMS 273 small cell lung = system: DMS 273 small cell lung
# EKVX NSCLC = system: EKVX NSCLC
# HCC-2998 colon = system: HCC-2998 colon
# HCT-116 colon = system: HCT-116 colon
# HCT-15 colon = system: HCT-15 colon
# HL-60(TB) leukemia = system: HL-60(TB) leukemia
# HOP-18 NSCLC = system: HOP-18 NSCLC
# HOP-62 NSCLC = system: HOP-62 NSCLC
# HOP-92 NSCLC = system: HOP-92 NSCLC
# HT29 colon = system: HT29 colon
# IGROV1 ovarian = system: IGROV1 ovarian
# K-562 leukemia = system: K-562 leukemia
# KM12 colon = system: KM12 colon
# KM20L2 colon = system: KM20L2 colon
# LOX IMVI melanoma = system: LOX IMVI melanoma
# LXFL 529 NSCLC = system: LXFL 529 NSCLC
# M14 melanoma = system: M14 melanoma
# M19-MEL melanoma = system: M19-MEL melanoma
# MALME-3M melanoma = system: MALME-3M melanoma
# MOLT-4 leukemia = system: MOLT-4 leukemia
# NCI-H226 lung = system: NCI-H226 lung
# NCI-H23 lung = system: NCI-H23 lung
# NCI-H460 lung = system: NCI-H460 lung
# NCI-H522 lung = system: NCI-H522 lung
# OVCAR-3 ovarian = system: OVCAR-3 ovarian
# OVCAR-5 ovarian = system: OVCAR-5 ovarian
# OVCAR-8 ovarian = system: OVCAR-8 ovarian
# RPMI-8226 leukemia = system: RPMI-8226 leukemia
# RXF 393 renal = system: RXF 393 renal
# RXF-631 renal = system: RXF-631 renal
# SF-268 CNS = system: SF-268 CNS
# SF-295 CNS = system: SF-295 CNS
# SF-539 CNS = system: SF-539 CNS
# SK-MEL-2 melanoma = system: SK-MEL-2 melanoma
# SK-MEL-28 melanoma = system: SK-MEL-28 melanoma
# SK-MEL-5 melanoma = system: SK-MEL-5 melanoma
# SK-OV-3 ovarian = system: SK-OV-3 ovarian
# SN12C renal = system: SN12C renal
# SNB-19 CNS = system: SNB-19 CNS
# SNB-78 CNS = system: SNB-78 CNS
# SR leukemia = system: SR leukemia
# SW-620 colon = system: SW-620 colon
# TK-10 renal = system: TK-10 renal
# U251 CNS = system: U251 CNS
# UACC-257 melanoma = system: UACC-257 melanoma
# UACC-62 melanoma = system: UACC-62 melanoma
# UO-31 renal = system: UO-31 renal
# ACHN renal = system: ACHN renal
# OVCAR-4 ovarian = system: OVCAR-4 ovarian
# SNB-75 CNS = system: SNB-75 CNS
compound,measurement,setting,value
CC(=O)NNc1nc(C)c(C(=O)/C=C/c2cccc([N+](=O)[O-])c2)s1,TGI,786-0 renal,> 100 µM
same,TGI,A498 renal,> 100 µM
same,TGI,A549 NSCLC,> 100 µM
same,TGI,CAKI-1 renal,> 100 µM
same,TGI,CCRF-CEM leukemia,> 100 µM
same,TGI,COLO 205 colon,> 100 µM
same,TGI,DLD-1 colon,> 100 µM
same,TGI,DMS 114 small cell lung,> 100 µM
same,TGI,DMS 273 small cell lung,> 100 µM
same,TGI,EKVX NSCLC,> 100 µM
same,TGI,HCC-2998 colon,> 100 µM
same,TGI,HCT-116 colon,> 100 µM
same,TGI,HCT-15 colon,> 100 µM
same,TGI,HL-60(TB) leukemia,> 100 µM
same,TGI,HOP-18 NSCLC,> 100 µM
same,TGI,HOP-62 NSCLC,> 100 µM
same,TGI,HOP-92 NSCLC,> 100 µM
same,TGI,HT29 colon,> 100 µM
same,TGI,IGROV1 ovarian,> 100 µM
same,TGI,K-562 leukemia,> 100 µM
same,TGI,KM12 colon,> 100 µM
same,TGI,KM20L2 colon,> 100 µM
same,TGI,LOX IMVI melanoma,> 100 µM
same,TGI,LXFL 529 NSCLC,> 100 µM
same,TGI,M14 melanoma,> 100 µM
same,TGI,M19-MEL melanoma,> 100 µM
same,TGI,MALME-3M melanoma,> 100 µM
same,TGI,MOLT-4 leukemia,> 100 µM
same,TGI,NCI-H226 lung,> 100 µM
same,TGI,NCI-H23 lung,> 100 µM
same,TGI,NCI-H460 lung,> 100 µM
same,TGI,NCI-H522 lung,> 100 µM
same,TGI,OVCAR-3 ovarian,> 100 µM
same,TGI,OVCAR-5 ovarian,> 100 µM
same,TGI,OVCAR-8 ovarian,> 100 µM
same,TGI,RPMI-8226 leukemia,> 100 µM
same,TGI,RXF 393 renal,> 100 µM
same,TGI,RXF-631 renal,> 100 µM
same,TGI,SF-268 CNS,> 100 µM
same,TGI,SF-295 CNS,> 100 µM
same,TGI,SF-539 CNS,> 100 µM
same,TGI,SK-MEL-2 melanoma,> 100 µM
same,TGI,SK-MEL-28 melanoma,> 100 µM
same,TGI,SK-MEL-5 melanoma,> 100 µM
same,TGI,SK-OV-3 ovarian,> 100 µM
same,TGI,SN12C renal,> 100 µM
same,TGI,SNB-19 CNS,> 100 µM
same,TGI,SNB-78 CNS,> 100 µM
same,TGI,SR leukemia,> 100 µM
same,TGI,SW-620 colon,> 100 µM
same,TGI,TK-10 renal,> 100 µM
same,TGI,U251 CNS,> 100 µM
same,TGI,UACC-257 melanoma,> 100 µM
same,TGI,UACC-62 melanoma,> 100 µM
same,TGI,UO-31 renal,> 100 µM
CC(C)(CN1CCCCC1)C(=O)/C=C/c1ccc(Cl)c(Cl)c1,TGI,786-0 renal,2.69 µM
same,TGI,A498 renal,3.09 µM
same,TGI,A549 NSCLC,4.07 µM
same,TGI,ACHN renal,2.88 µM
same,TGI,CCRF-CEM leukemia,3.27 µM
same,TGI,COLO 205 colon,2.85 µM
same,TGI,DLD-1 colon,3.5 µM
same,TGI,DMS 114 small cell lung,3.05 µM
same,TGI,DMS 273 small cell lung,3.2 µM
same,TGI,EKVX NSCLC,3.29 µM
same,TGI,HCC-2998 colon,3.21 µM
same,TGI,HCT-116 colon,3.08 µM
same,TGI,HCT-15 colon,2.73 µM
same,TGI,HL-60(TB) leukemia,3.4 µM
same,TGI,HOP-18 NSCLC,2.85 µM
same,TGI,HOP-62 NSCLC,3.8 µM
same,TGI,HOP-92 NSCLC,2.34 µM
same,TGI,HT29 colon,3.06 µM
same,TGI,IGROV1 ovarian,4.15 µM
same,TGI,K-562 leukemia,4.13 µM
same,TGI,KM12 colon,3.25 µM
same,TGI,LOX IMVI melanoma,2.76 µM
same,TGI,LXFL 529 NSCLC,2.78 µM
same,TGI,M14 melanoma,3.07 µM
same,TGI,M19-MEL melanoma,3.21 µM
same,TGI,MALME-3M melanoma,3.31 µM
same,TGI,MOLT-4 leukemia,4.57 µM
same,TGI,NCI-H226 lung,3.15 µM
same,TGI,NCI-H23 lung,3.26 µM
same,TGI,NCI-H460 lung,3.46 µM
same,TGI,NCI-H522 lung,2.67 µM
same,TGI,OVCAR-3 ovarian,2.94 µM
same,TGI,OVCAR-4 ovarian,2.87 µM
same,TGI,OVCAR-5 ovarian,3.08 µM
same,TGI,OVCAR-8 ovarian,> 100 µM
same,TGI,RPMI-8226 leukemia,5.34 µM
same,TGI,RXF 393 renal,2.42 µM
same,TGI,RXF-631 renal,3.72 µM
same,TGI,SF-268 CNS,3.74 µM
same,TGI,SF-295 CNS,5.86 µM
same,TGI,SF-539 CNS,4.6 µM
same,TGI,SK-MEL-2 melanoma,3.18 µM
same,TGI,SK-MEL-28 melanoma,3.37 µM
same,TGI,SK-MEL-5 melanoma,3.5 µM
same,TGI,SK-OV-3 ovarian,7.51 µM
same,TGI,SN12C renal,2.92 µM
same,TGI,SNB-19 CNS,12.2 µM
same,TGI,SNB-75 CNS,3.13 µM
same,TGI,SNB-78 CNS,4.5 µM
same,TGI,SR leukemia,4.69 µM
same,TGI,SW-620 colon,2.94 µM
same,TGI,TK-10 renal,2.8 µM
same,TGI,U251 CNS,2.7 µM
same,TGI,UACC-257 melanoma,2.41 µM
same,TGI,UACC-62 melanoma,4.06 µM
same,TGI,UO-31 renal,2.99 µM
